Assay results: ChEMBL document CHEMBL3217463, “Design, synthesis and biological evaluation of -lactam hydroxamate based TACE inhibitors” (Medchemcomm, 2011)

Experiments:
Rattus norvegicus [1] = experiment: Toxicity in Wistar rat assessed as total bilirubin at 100 mg/kg, po bid for 28 days (reference value: 0.14 +/- 0.01 mg/dL); assay type: organism-based; set-up: dose 100 mg/kg, route oral; conditions: in vivo, 672 h
Rattus norvegicus [2] = experiment: Toxicity in Wistar rat assessed as aspartate aminotransferase at 100 mg/kg, po bid for 28 days (reference value: 147.16 +/- 11.75 U/L); assay type: organism-based; set-up: dose 100 mg/kg, route oral; conditions: in vivo, 672 h
Rattus norvegicus [3] = experiment: Toxicity in Wistar rat assessed as alkaline phosphatase at 100 mg/kg, po bid for 28 days (reference value: 134.66 +/- 5.3 U/L); assay type: organism-based; set-up: dose 100 mg/kg, route oral; conditions: in vivo, 672 h
Blood = experiment: Antiinflammatory activity in human whole blood assessed as inhibition of LPS-induced TNFalpha secretion by ELISA; assay type: functional, tissue-based
Rattus norvegicus [4] = experiment: Toxicity in Wistar rat assessed as RBC count at 100 mg/kg, po bid for 28 days (reference value: 7.38 +/- 0.11 10^6/ul); assay type: organism-based; set-up: dose 100 mg/kg, route oral; conditions: in vivo, 672 h
Rattus norvegicus [5] = experiment: Toxicity in Wistar rat assessed as WBC count at 100 mg/kg, po bid for 28 days (reference value: 8.20 +/- 0.33 10^3/ul); assay type: organism-based; set-up: dose 100 mg/kg, route oral; conditions: in vivo, 672 h
[6] = biological target: T1, Disintegrin and metalloproteinase domain-containing protein 10 (Homo sapiens, UniProt O14672); experiment: Inhibition of ADAM10 (unknown origin) using fluorescent substrate by fluorescence-based FRET assay
T1 sequence (O14672 whole entry): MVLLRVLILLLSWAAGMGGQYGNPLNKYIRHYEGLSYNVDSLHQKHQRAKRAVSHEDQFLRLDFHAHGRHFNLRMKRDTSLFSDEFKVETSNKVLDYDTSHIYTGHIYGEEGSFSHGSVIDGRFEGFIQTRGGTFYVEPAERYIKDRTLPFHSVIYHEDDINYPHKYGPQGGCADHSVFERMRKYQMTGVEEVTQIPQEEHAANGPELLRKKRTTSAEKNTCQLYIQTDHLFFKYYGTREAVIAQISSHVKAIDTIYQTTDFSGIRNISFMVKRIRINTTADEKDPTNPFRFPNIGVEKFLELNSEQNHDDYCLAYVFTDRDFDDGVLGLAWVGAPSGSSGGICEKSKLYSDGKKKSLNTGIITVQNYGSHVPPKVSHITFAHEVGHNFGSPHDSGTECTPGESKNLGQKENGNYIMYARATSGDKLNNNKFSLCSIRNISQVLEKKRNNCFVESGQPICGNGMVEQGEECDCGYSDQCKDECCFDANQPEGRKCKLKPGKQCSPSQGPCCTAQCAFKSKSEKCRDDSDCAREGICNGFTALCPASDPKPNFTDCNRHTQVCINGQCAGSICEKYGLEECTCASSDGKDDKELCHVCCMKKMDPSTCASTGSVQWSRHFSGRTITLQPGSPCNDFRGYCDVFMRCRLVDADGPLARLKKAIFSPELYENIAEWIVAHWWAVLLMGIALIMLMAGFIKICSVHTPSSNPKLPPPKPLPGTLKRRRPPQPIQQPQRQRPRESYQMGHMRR

Interstitial collagenase = biological target: T2, Interstitial collagenase (Homo sapiens, UniProt P03956); experiment: Inhibition of MMP1 (unknown origin) by fluorescence-based FRET assay
T2 sequence (P03956 whole entry): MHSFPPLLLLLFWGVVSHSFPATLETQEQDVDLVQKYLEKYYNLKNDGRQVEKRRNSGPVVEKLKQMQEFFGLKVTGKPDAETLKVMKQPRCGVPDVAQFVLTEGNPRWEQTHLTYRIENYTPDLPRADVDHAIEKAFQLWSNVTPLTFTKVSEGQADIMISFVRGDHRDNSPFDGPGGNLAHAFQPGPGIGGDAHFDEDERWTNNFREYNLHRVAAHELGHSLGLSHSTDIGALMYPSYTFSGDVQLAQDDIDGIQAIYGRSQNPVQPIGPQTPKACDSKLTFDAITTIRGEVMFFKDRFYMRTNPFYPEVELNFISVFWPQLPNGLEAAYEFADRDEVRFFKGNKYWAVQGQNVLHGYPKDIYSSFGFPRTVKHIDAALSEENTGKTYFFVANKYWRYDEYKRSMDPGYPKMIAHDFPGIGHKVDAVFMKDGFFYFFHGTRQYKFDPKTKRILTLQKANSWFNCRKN

Matrilysin = biological target: T3, Matrilysin (Homo sapiens, UniProt P09237); experiment: Inhibition of MMP7 (unknown origin) by fluorescence-based FRET assay
T3 sequence (P09237 whole entry): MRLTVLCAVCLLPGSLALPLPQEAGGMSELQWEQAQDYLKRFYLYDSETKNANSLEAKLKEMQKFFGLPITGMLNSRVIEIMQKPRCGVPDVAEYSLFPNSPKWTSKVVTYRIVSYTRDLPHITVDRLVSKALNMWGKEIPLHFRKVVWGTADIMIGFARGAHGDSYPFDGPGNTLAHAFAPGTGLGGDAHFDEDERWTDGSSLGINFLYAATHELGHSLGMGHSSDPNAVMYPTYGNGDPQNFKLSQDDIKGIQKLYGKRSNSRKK

Neutrophil collagenase = Neutrophil collagenase (Homo sapiens, UniProt P22894); experiment: Inhibition of MMP8 (unknown origin) by fluorescence-based FRET assay
[7] = biological target: T4, Disintegrin and metalloproteinase domain-containing protein 17 (Homo sapiens, UniProt P78536); experiment: Ratio of IC50 for human catalytic domain of TACE to IC50 for MMP2 (unknown origin)
[8] = biological target: T4, Disintegrin and metalloproteinase domain-containing protein 17; experiment: Ratio of IC50 for human catalytic domain of TACE to IC50 for MMP13 (unknown origin)
[9] = biological target: T4, Disintegrin and metalloproteinase domain-containing protein 17; experiment: Ratio of IC50 for human catalytic domain of TACE to IC50 for MMP14 (unknown origin)
Mus musculus = experiment: Antiinflammatory activity in po dosed Swiss Albino mouse assessed as inhibition of LPS-induced TNFalpha secretion in blood treated 0.5 hrs before LPS and measured after 1 hr of LPS stimulus by ELISA; assay type: functional
[10] = Elimination rate constant in Wistar rat at 5 mg/kg, iv; assay type: ADME, organism-based; set-up: dose 5 mg/kg, route intravenous; conditions: in vivo
[11] = AUC in Wistar rat at 5 mg/kg, iv; assay type: ADME, organism-based; set-up: dose 5 mg/kg, route intravenous; conditions: plasma
[12] = Tmax in Wistar rat at 5 mg/kg, po; assay type: ADME, organism-based; set-up: dose 5 mg/kg, route oral; conditions: in vivo
Rattus norvegicus [13] = experiment: Half life in Wistar rat at 5 mg/kg, po; assay type: ADME, organism-based; set-up: dose 5 mg/kg, route oral; conditions: in vivo
Rattus norvegicus [14] = experiment: Elimination rate constant in Wistar rat at 5 mg/kg, po; assay type: ADME, organism-based; set-up: dose 5 mg/kg, route oral; conditions: in vivo
[15] = AUC in Wistar rat at 5 mg/kg, po; assay type: ADME, organism-based; set-up: dose 5 mg/kg, route oral; conditions: plasma
Rattus norvegicus [16] = experiment: Toxicity in Wistar rat assessed as adverse changes at 100 mg/kg, po bid for 28 days; assay type: organism-based; set-up: dose 100 mg/kg, route oral; conditions: in vivo, 672 h
Rattus norvegicus [17] = experiment: Toxicity in Wistar rat assessed as food consumption at 100 mg/kg, po bid for 28 days; assay type: organism-based; set-up: dose 100 mg/kg, route oral; conditions: in vivo, 672 h
Rattus norvegicus [18] = experiment: Toxicity in Wistar rat assessed as relative heart weight at 100 mg/kg, po bid for 28 days (reference value: 0.345 +/- 0.007 %); assay type: organism-based; set-up: dose 100 mg/kg, route oral; conditions: in vivo, 672 h
Rattus norvegicus [19] = experiment: Toxicity in Wistar rat assessed as relative liver weight at 100 mg/kg, po bid for 28 days (reference value: 3.659 +/- 0.1 %); assay type: organism-based; set-up: dose 100 mg/kg, route oral; conditions: in vivo, 672 h
Rattus norvegicus [20] = experiment: Toxicity in Wistar rat assessed as relative kidney weight at 100 mg/kg, po bid for 28 days (reference value: 0.821 +/- 0.03 %); assay type: organism-based; set-up: dose 100 mg/kg, route oral; conditions: in vivo, 672 h
Rattus norvegicus [21] = experiment: Toxicity in Wistar rat assessed as relative spleen weight at 100 mg/kg, po bid for 28 days (reference value: 0.201+/- 0.007 %); assay type: organism-based; set-up: dose 100 mg/kg, route oral; conditions: in vivo, 672 h

T4 sequence (P78536 whole entry, the tested form may be a part): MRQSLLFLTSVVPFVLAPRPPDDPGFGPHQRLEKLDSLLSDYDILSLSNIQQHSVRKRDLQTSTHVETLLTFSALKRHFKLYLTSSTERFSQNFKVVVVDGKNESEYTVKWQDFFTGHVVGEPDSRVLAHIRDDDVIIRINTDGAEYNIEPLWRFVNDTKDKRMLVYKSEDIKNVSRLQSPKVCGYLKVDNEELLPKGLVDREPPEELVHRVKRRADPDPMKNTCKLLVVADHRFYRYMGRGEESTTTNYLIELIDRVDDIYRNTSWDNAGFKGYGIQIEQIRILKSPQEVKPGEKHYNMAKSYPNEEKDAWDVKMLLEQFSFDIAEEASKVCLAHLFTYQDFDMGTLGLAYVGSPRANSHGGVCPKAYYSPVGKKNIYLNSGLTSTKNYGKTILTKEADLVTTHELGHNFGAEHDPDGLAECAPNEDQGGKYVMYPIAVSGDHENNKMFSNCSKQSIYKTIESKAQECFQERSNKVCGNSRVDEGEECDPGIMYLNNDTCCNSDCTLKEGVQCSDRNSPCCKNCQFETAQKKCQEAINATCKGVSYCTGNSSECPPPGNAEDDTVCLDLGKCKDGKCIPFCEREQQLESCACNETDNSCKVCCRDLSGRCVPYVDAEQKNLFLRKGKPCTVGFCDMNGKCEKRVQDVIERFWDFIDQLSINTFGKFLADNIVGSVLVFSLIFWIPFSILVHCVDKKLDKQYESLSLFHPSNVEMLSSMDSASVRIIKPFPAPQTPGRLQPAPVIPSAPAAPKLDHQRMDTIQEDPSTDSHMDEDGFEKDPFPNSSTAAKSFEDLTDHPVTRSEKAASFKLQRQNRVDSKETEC
Neutrophil collagenase, sequence (P22894 whole entry, the tested form may be a part): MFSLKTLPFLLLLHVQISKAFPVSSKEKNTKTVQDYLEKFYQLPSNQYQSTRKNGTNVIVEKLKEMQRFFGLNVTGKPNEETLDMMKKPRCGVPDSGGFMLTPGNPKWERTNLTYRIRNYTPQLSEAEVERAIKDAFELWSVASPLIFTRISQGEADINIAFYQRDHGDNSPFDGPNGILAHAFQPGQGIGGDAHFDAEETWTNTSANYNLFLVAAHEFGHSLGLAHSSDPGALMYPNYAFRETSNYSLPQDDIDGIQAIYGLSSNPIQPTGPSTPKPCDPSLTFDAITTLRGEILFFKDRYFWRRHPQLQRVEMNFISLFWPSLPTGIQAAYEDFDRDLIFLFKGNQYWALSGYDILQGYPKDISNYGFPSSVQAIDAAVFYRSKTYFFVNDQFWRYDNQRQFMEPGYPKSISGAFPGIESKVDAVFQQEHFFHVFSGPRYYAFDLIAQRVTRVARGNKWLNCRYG

## COCCc1cc(COc2ccc([C@]3(N)CCN([C@H](CC(C)C)C(=O)NO)C3=O)cc2)c2ccccc2n1
Rattus norvegicus [1]
  Activity: 0.17 mg/dL
Rattus norvegicus [2]
  Activity: 140.2 U/L
Rattus norvegicus [3]
  Activity: 121.2 U/L
Blood
  IC50: 13 nM
Rattus norvegicus [4]
  Activity: 8.01 ×10⁶ /uL
Rattus norvegicus [5]
  Activity: 8.41 ×10³ /uL
[6]
  IC50: 1200 nM
Interstitial collagenase
  IC50: 1060 nM
Matrilysin
  IC50: 1010 nM
Neutrophil collagenase
  IC50: 1000 nM
[7]
  Ratio IC50: > 500
[8]
  Ratio IC50: > 500
[9]
  Ratio IC50: > 500
Mus musculus
  ED50: 3.1 mg/kg
[10]
  k el: 0.000283 s⁻¹
[11]
  AUC: 19700 ng·h/mL
[12]
  Tmax: 19.8 min
Rattus norvegicus [13]
  t1/2: 229 min
Rattus norvegicus [14]
  Kel: 0.44 h⁻¹
[15]
  AUC: 11800 ng·h/mL
Rattus norvegicus [16]
  Activity: Non-toxic
Rattus norvegicus [17]
  Activity: Non-toxic
Rattus norvegicus [18]
  Activity: 0.358%
Rattus norvegicus [19]
  Activity: 3.801%
Rattus norvegicus [20]
  Activity: 0.878%
Rattus norvegicus [21]
  Activity: 0.203%
